This is an account of results in publication PMC10643210, “Expanding structural diversity of 5′-aminouridine moiety of sansanmycin via mutational biosynthesis” (Frontiers in Bioengineering and Biotechnology, 2023).

As a reminder, the IC50 is the concentration that gives 50% inhibition.

≈ marks a conversion by molar mass, not a printed value. Where two headings read alike, the source gives them in different places.

One data set concerns Pae PAM1020. Particulars: Figure 1F; ref Boojamra et al., 2001; cited from earlier work.
For a further data set, the system named is Pae PAO1. The note with it: Figure 1F; ref Okamoto et al., 2012; cited from earlier work.
For data set [1], the system named is Mtb H37Rv. Particulars: Figure 1F, ref Tran et al., 2017, cited from earlier work.
The test system of data set [2] is M. tuberculosis H37Rv. The data set can be described thus: microbe, parasite or virus in culture. The note with it: Mycobacterium tuberculosis, read-out: MIC M. tuberculosis H37Rv.
Data set [3] has as its system M. tuberculosis S17. The data set can be described thus: microbe, parasite or virus in culture. Particulars: Mycobacterium tuberculosis, S17, read-out: MIC M. tuberculosis S17.
Data set [4] relates to M. tuberculosis S17. Particulars: clinical isolate susceptible to isoniazid and rifampicin; Alamar blue, 7H9 broth, triplicate wells. (In general: The colour change of resazurin is a common sign of viable cells or microbes.)
Data set [5] relates to M. Phlei. The note with it: microdilution in Mueller-Hinton broth, 10 h at 37°C, visual read-out, triplicate. On the technique in general: Dilution methods test growth across graded concentrations, often in twofold steps.
The test system of data set [6] is P. aeruginosa 11. Particulars: microdilution in Mueller-Hinton broth, 10 h at 37°C, visual read-out, triplicate.
In data set [7] the test system is M. tuberculosis H37Rv.
The subject of a further data set is E. coli ΔtolC. The note with it: microdilution in Mueller-Hinton broth, 10 h at 37°C, visual read-out, triplicate.
For another data set, the system named is MraY A. aeolicus. Particulars: Figure 1F, ref Mashalidis et al., 2019, cited from earlier work. From the text: (§1) FIGURE 1 Chemical structures of natural UPAs (black) and synthetic analogues with modified 5′-aminouridine moiety (blue) and their corresponding inhibitory activity. (A) The pseudo-tetrapeptide backbone of UPAs. (B) The chemical structures of 5′-aminouridine of natural UPAs. (C–E) The chemical structures of modified 5′-aminouridine of synthetic analogues. (F) Detailed information on structure and inhibitory activities of natural UPAs and synthesized derivatives. Pae, Pseudomonas aeruginosa; Mtb, Mycobacterium tuberculosis; B. subtilis, Bacillus subtilis; S. aureus, Staphylococcus aureus; A. ae ...

Data set [8] relates to Mtb H37Rv. Particulars: Figure 1F, natural sansanmycins; reference not given; cited from earlier work.
Data set [9] concerns P. aeruginosa 11. The data set can be described thus: microbe, parasite or virus in culture. Particulars: Pseudomonas aeruginosa, 11, 10 h, read-out: MIC P. aeruginosa 11.
In data set [10] the test system is M. Phlei. The data set can be described thus: microbe, parasite or virus in culture. The note with it: Mycolicibacterium phlei, 10 h, read-out: MIC M. Phlei.
A further data set deals with MraY B. subtilis. The note with it: Figure 1F; ref Inukai et al., 1993; cited from earlier work.
Excerpt: as §1

Data set [11] can be described thus: Stability in KH2PO4 buffer, HPLC. The data set is classed as physicochemical. Particulars: chemical stability, 0.05 M KH2PO4 buffer pH 6.0, room temperature (method: 28 °C), HPLC peak area, three parallel repeats. The method, then:
Poor stability is one of the factors hindering the development of sansanmycin analogues into drug candidates. Thus, we conducted stability experiments followed the method reported previously ([Shi et al., 2016]) on the two active sansanmycin analogues, SS-KK-2 and SS-KK-3 (Figure 5). These experiments were carried out at room temperature with the parent compound SS-A as a control.
FIGURE 5 Stability of SS-A, SS-KK-2 and SS-KK-3. (A–C) HPLC analysis of SS-A, SS-KK-2 and SS-KK-3 at indicated days in KH2PO4 buffer (pH 6.0) at room temperature. (D) The changes of the level of SS-A, SS-KK-2 and SS-KK-3 over time. All samples were analyzed by HPLC and quantified according to the areas of peaks. Each sample underwent three parallel repeats. SS-A, black line; SS-KK-2, orange line; SS-KK-3, green line.
The stability assessment of sansanmycin A and its analogues was conducted using a previously reported method ([Shi et al., 2016]). Sansanmycins were dissolved in 0.05 M KH2PO4 buffer (with pH adjusted to 6.0 using NaOH) and incubated at 28 °C for 9 days with testing conducted every 3 days. Each sample underwent three parallel repeats. All samples were analyzed by HPLC and quantified by peak area analysis.

For the molecule Pacidamycin D, in the data set with Pae PAM1020, the “MIC (Pae PAM1020)” value is 64 µg/mL. For the same molecule, in the data set with Pae PAO1, the “MIC (Pae PAO1)” value is 64 µg/mL.

For the molecule Dihydrosansanmycin A, the “MIC50 (Mtb H37Rv)” value with Mtb H37Rv [1] (value in brackets) was 0.50 ± 0.05 µM; in the data set on Mtb H37Rv [1] it was 0.43 µg/mL.

In the case of `NNC(=O)c1ccncc1` [INH, isoniazid], the MIC in the data set with M. tuberculosis H37Rv [2] and in the data set on M. tuberculosis S17 [3] was 0.03 µg/mL (≈ 0.219 µM) each time.

Regarding `CSCC[C@H](NC(=O)N[C@@H](Cc1c[nH]c2ccccc12)C(=O)O)C(=O)N[C@H](C(=O)NC[C@H]1O[C@@H](n2ccc(=O)[nH]c2=O)C[C@@H]1O)[C@H](C)N(C)C(=O)[C@@H](N)Cc1cccc(O)c1` [SS-KK-1], the “MIC M. tuberculosis S17” value against M. tuberculosis S17 [4] is greater than 64 µg/mL. Further, in the data set on M. Phlei [5], the “MIC M. Phlei” value was greater than 32 µg/mL. The “MIC P. aeruginosa 11” value with P. aeruginosa 11 [6] was greater than 32 µg/mL. For the same molecule, in the data set with M. tuberculosis H37Rv [7], the “MIC M. tuberculosis H37Rv” value is greater than 64 µg/mL. The “MIC E. coli ΔtolC” value in the data set on E. coli ΔtolC is greater than 32 µg/mL.

3′-hydroxymureidomycin A: the IC50 in the data set with MraY A. aeolicus (value in brackets) is 52 nM. Besides, the “IC50 (MraY A. aeolicus)” value in the data set with MraY A. aeolicus is 0.045 µg/mL.

Sansanmycin B: the “MIC (Mtb H37Rv)” value with Mtb H37Rv [8] is 8 µg/mL.

With 3′-hydroxypacidamycin D, the “MIC (Pae PAO1)” value with Pae PAO1 was 32 µg/mL.

For the molecule `[H]/N=C(/N)N[C@H]1[C@H](O)[C@@H](O)[C@H](O[C@@H]2O[C@@H](C)[C@](O)(C=O)[C@H]2O[C@@H]2O[C@@H](CO)[C@H](O)[C@@H](O)[C@@H]2NC)[C@@H](N/C(N)=N\[H])[C@@H]1O` [streptomycin], the MIC with P. aeruginosa 11 [9] was 8 µg/mL (≈ 13.8 µM); with M. Phlei [10], 16 µg/mL (≈ 27.5 µM). In the data set with E. coli ΔtolC, the “MIC E. coli ΔtolC” value is 2 µg/mL (≈ 3.44 µM).

Regarding Dihydrosansanmycin B, the “MIC50 (Mtb H37Rv)” value in the data set on Mtb H37Rv [1] (value in brackets) was 0.30 ± 0.07 µM; in the data set on Mtb H37Rv [1] it was 0.25 µg/mL.

Take Mureidomycin A: the “IC50 (MraY B. subtilis)” value with MraY B. subtilis was 0.05 µg/mL.

Regarding `CC(=O)NC[C@H]1CN(c2ccc(N3CCOCC3)c(F)c2)C(=O)O1` [LZD, linezolid], the MIC with M. tuberculosis H37Rv [2] and with M. tuberculosis S17 [3] was 0.25 µg/mL (≈ 0.741 µM) each time.

For Dihydropacidamycin D, the “MIC (Pae PAM1020)” value with Pae PAM1020 was 64 µg/mL.

On to `CSCC[C@H](NC(=O)N[C@@H](Cc1c[nH]c2ccccc12)C(=O)O)C(=O)N[C@H](C(=O)NC[C@H]1O[C@@H](n2ccc(=O)[nH]c2=O)C[C@@H]1O)[C@H](C)N(C)C(=O)[C@@H](N)Cc1ccc(O)cc1` [SS-KK-2], for which, in the data set on M. tuberculosis S17 [4], the “MIC M. tuberculosis S17” value was determined as 32 µg/mL (≈ 37 µM). In addition, the “stability compared with SS-A” value in data set [11] (9 days, tested every 3 days) was “slightly higher level of stability than SS-A”. Further, in the data set on M. Phlei [5], the “MIC M. Phlei” value is greater than 32 µg/mL. For the same molecule, in the data set with P. aeruginosa 11 [6], the “MIC P. aeruginosa 11” value is greater than 32 µg/mL. Besides, the “MIC M. tuberculosis H37Rv” value against M. tuberculosis H37Rv [7] came to 32 µg/mL (≈ 37 µM). The “MIC E. coli ΔtolC” value in the data set with E. coli ΔtolC was 1 µg/mL (≈ 1.15 µM).

For `CSCC[C@H](NC(=O)N[C@@H](Cc1c[nH]c2ccccc12)C(=O)O)C(=O)N[C@H](C(=O)N/C=C1/C[C@@H](O)[C@H](n2ccc(=O)[nH]c2=O)O1)[C@H](C)N(C)C(=O)[C@@H](N)Cc1cccc(O)c1` [SS-A, sansanmycin A], the “MIC M. tuberculosis S17” value in the data set on M. tuberculosis S17 [4] is 16 µg/mL (≈ 18.5 µM). In addition, in [11], the “residual quantities after 9 days of incubation” value was “below 70%”. Further, the “MIC M. Phlei” value with M. Phlei [5] worked out at 64 µg/mL (≈ 74.1 µM). Moreover, the “MIC P. aeruginosa 11” value with P. aeruginosa 11 [6] is 16 µg/mL (≈ 18.5 µM). Further, the “MIC M. tuberculosis H37Rv” value against M. tuberculosis H37Rv [7] was determined as 16 µg/mL (≈ 18.5 µM). Also, in the data set with Mtb H37Rv [8], the “MIC (Mtb H37Rv)” value was 16 µg/mL (≈ 18.5 µM). For the same molecule, the “MIC E. coli ΔtolC” value in the data set with E. coli ΔtolC stood at 4 µg/mL (≈ 4.63 µM).

Turning to `CO[C@H]1/C=C/O[C@@]2(C)Oc3c(C)c(O)c4c(O)c(c(/C=N/N5CCN(C)CC5)c(O)c4c3C2=O)NC(=O)/C(C)=C\C=C\[C@H](C)[C@H](O)[C@@H](C)[C@@H](O)[C@@H](C)[C@H](OC(C)=O)[C@@H]1C` [RIF, rifampicin], the MIC with M. tuberculosis H37Rv [2] was 0.125 µg/mL (≈ 0.152 µM); with M. tuberculosis S17 [3] it was 0.25 µg/mL (≈ 0.304 µM).

As for Sansanmycin C, the “MIC (Mtb H37Rv)” value in the data set with Mtb H37Rv [8] is greater than 32 µg/mL.

Consider Dihydrosansanmycin C, for which the entries for the “MIC50 (Mtb H37Rv)” value in the data set on Mtb H37Rv [1] (value in brackets) and in the data set on Mtb H37Rv [1] were 18.5 ± 0.70 µM and 16 µg/mL, respectively.
